Measured values taken from article PMC7046733, “Plantaricin NC8 αβ exerts potent antimicrobial activity against Staphylococcus spp. and enhances the effects of antibiotics” (Scientific Reports, 2020).
Residues, ends and D or L forms follow the SMILES beside them.

System: Trypsin
Assay: Proteolytic degradation
Format: in vitro ADME
Details: peptide 100 µM, trypsin 0.125 mg/ml (~5 µM), ammonium bicarbonate buffer 50 mM pH 8.5, 16 h, 37 °C, MALDI-ToF MS
Source text: Samples were resuspended in MQ-water containing 0.1% TFA, desalted using ZipTip-C18 columns (Millipore) and analyzed using MALDI-ToF with α-cyano-4-hydroxycinnamic acid as matrix.

## CC[C@H](C)[C@H](NC(=O)CNC(=O)[C@H](CC(C)C)NC(=O)[C@@H](NC(=O)[C@H](Cc1ccc(O)cc1)NC(=O)[C@@H](NC(=O)[C@H](CO)NC(=O)[C@@H](NC(=O)[C@@H]1CCCN1C(=O)[C@@H](NC(=O)[C@@H](N)CO)C(C)C)[C@@H](C)O)C(C)C)[C@@H](C)O)C(=O)N[C@@H](CCCCN)C(=O)N[C@H](C(=O)N[C@@H](CC(C)C)C(=O)N[C@@H](Cc1c[nH]c2ccccc12)C(=O)N[C@@H](CO)C(=O)N[C@@H](C)C(=O)N[C@@H](Cc1ccc(O)cc1)C(=O)N[C@@H](CCCCN)C(=O)N[C@@H](Cc1c[nH]cn1)C(=O)N[C@@H](CCCNC(=N)N)C(=O)N[C@@H](CCCCN)C(=O)N[C@H](C(=O)N[C@H](C(=O)N[C@@H](CCC(=O)O)C(=O)N[C@@H](CCCCN)C(=O)N[C@@H](CO)C(=O)N[C@@H](Cc1ccccc1)C(=O)N[C@@H](CC(N)=O)C(=O)N[C@@H](CCCCN)C(=O)NCC(=O)N[C@@H](Cc1ccccc1)C(=O)N[C@@H](Cc1ccc(O)cc1)C(=O)N[C@@H](Cc1c[nH]cn1)C(=O)O)[C@@H](C)CC)[C@@H](C)O)[C@@H](C)CC [L-PLNC8 β] (H-SVPTSVYTLGIKILWSAYKHRKTIEKSFNKGFYH-OH)
  degradation by trypsin: efficiently degraded by trypsin
